Data as given in patent publication US6803501B2 (Monsanto Technology, LLC, priority 2000, dated 2004).

Key:
[1] = tested on: EPSPS of the glyphosate sensitive E. indica biotype (wild type, plant crown extract); assay: radiometric EPSP synthase assay, glyphosate inhibition, plant extracts of sensitive biotype; format: biochemical, Eleusine indica; conditions: read-out: I50 (glyphosate); 1 mM shikimate-3-phosphate, 0.5 mM PEP, pH 7.0, 25° C.
Description: Preparation of extracts and radiometric EPSP synthase assays are performed using methods adapted from published procedures (Padgette et al., J. Biol. Chem. 266:22364-22369 (1991). Crown regions are dissected from whole plants, pulverized under liquid nitrogen with a mortar and pestle, then stored at −80° C. prior to extraction. Homogenates are prepared from 0.5 g tissue per sample in 25 ml extraction buffer (100 mM TrisCl, 10% glycerol, 1 mM EDTA, 1 mM benzamidine, 1 mM dithiothreitol, 1 mM 4-(2-aminoethyl)-benzenesulfonyl floride HCl, 0.1 mM leupeptin, pH 7.4) at 4° C. using a model PT3000 Polytron homogenizer (Brinkman Instuments Inc., Westbury, N.Y.). Debris is removed by 0.2 μm filtration, then the resulting supernatant is concentrated and desalted using an Ultrafree-15 centrifugal filtration unit (cat.#UFV2-BGC-10, Millipore Corp., Bedford, Mass.). Final sample volumes are approximately 0.5 ml. Protein concentrations are determined spectrophotometrically using the Bio-Rad protein assay reagent (cat.#500-0006, Bio-Rad Laboratories, Hercules, Calif.). EPSPS specific activities are determined by assaying 10 μl extract at 25° C. for 5-15 min. […] Reactions are quenched with the addition of 50 μl 9:1 ethanol: 0.1 M acetic acid. […]

[2] = tested on: E. coli SR481 cells expressing E. indica EPSP synthase (tolerant vs sensitive biotype); assay: growth of transgenic E. coli aroA- cells expressing E. indica EPSPS in the presence of glyphosate (FIG. 3); format: cell-based; conditions: M9 minimal media, 0.0, 0.5, 1.5 or 5.0 mM glyphosate, 0-48 hours, vs sensitive biotype enzyme
Description: The EPSP synthase mature protein-coding regions isolated from the glyphosate tolerant and glyphosate sensitive E. indica biotypes, can be directly compared for their ability to confer tolerance to glyphosate in transgenic hosts.
These sequences are employed in RT-PCR reactions to generate expression cassettes suitable for cloning into pMON45337 cut with the restriction enzymes Nde1 and EcoR1. RT-PCR reactions are performed with total RNAs extracted from frozen crown samples using the RNeasy Plant Mini Kit (cat.#74904, Qiagen Inc., Valencia, Calif.) per manufacturer's instructions. Oligo dT-primed first-strand cDNAs are prepared from 5 μg samples of total RNA using the Superscript Pre-Amplification System (cat.#18089-011, Life Technologies, Rockville, Md.) per manufacturer's instructions. Two μl of first-strand cDNA are then used to generate E. indica EPSP synthase expression cassettes via polymerase chain reaction. The oligonucleotides are added in 50 μl RT-PCR reactions at a final concentration of 0.4 μM. PCR amplifications are then performed using the Expand High Fidelity PCR System (cat.#1 732 641, Roche Molecular Biochemicals, Indianapolis, Ind.) per manufacturer's instructions, using a thermal profile of 94° C. for 30 seconds, then 57° C. for 2 minutes, followed by 75° C. for 3 minutes, for a total of 35 cycles. […]

[3] = tested on: native EPSPS from E. coli (wild type); conditions: read-out: apparent Ki for glyphosate; cited from earlier work
[4] = tested on: E. coli EPSPS glyphosate-resistant isolate, single amino acid substitution of an alanine for the glycine at position 96; conditions: read-out: apparent Ki for glyphosate; alanine for glycine at position 96; cited from earlier work

For O=C(O)CNCP(=O)(O)O [glyphosate, N-phosphonomethylglycine], the IC50 [1] is given as roughly 3000 nM, the “increase in tolerance to glyphosate due to EPSP synthase from tolerant E. indica biotype” value [2] is given as “approximately three-fold increase in tolerance to glyphosate” and the Ki [3] is given as 500 nM. The Ki [4] was 4 mM.
